Test results as given in PubChem BioAssay AID2060336 (Molecular Pharmacology Branch, DTP, NCI, 2025).
pIC50: −log10 of the molar value.

Tested on: 958767-090-R-J1-PDC spheroid growth
Assay: Anticancer human tumor 958767-090-R-J1-PDC patient-derived head and neck squamous carcinoma cell line growth inhibition [IpAb]
Settings: spheroids with HUVEC and MSC; for pIC50: curve of first compound; for viability, T/C: stronger effect = lower value
Summary of the method: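 Multi-cell spheroids of 60% tumour cells, 25% HUVEC and 15% MSC in ultra-low-attachment U-bottom wells, treated with agents combined with ipatasertib or abemaciclib. Half-log ranges top out near clinical Cmax, or 10 microM when Cmax is unknown.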

[1] = second compound 0.1 µM, first compound 0.0316 µM
[2] = second compound 0.1 µM, first compound 0.1 µM
[3] = second compound 0.1 µM, first compound 0.316 µM
[4] = second compound 0.1 µM, first compound 1 µM
[5] = second compound 0.1 µM, first compound 3.16 µM
[6] = second compound 0.1 µM, first compound 10 µM
[7] = second compound 0.316 µM, first compound 0.0316 µM
[8] = second compound 0.316 µM, first compound 0.1 µM
[9] = second compound 0.316 µM, first compound 0.316 µM
[10] = second compound 0.316 µM, first compound 1 µM
[11] = second compound 0.316 µM, first compound 3.16 µM
[12] = second compound 0.316 µM, first compound 10 µM
[13] = second compound 1 µM, first compound 0.0316 µM
[14] = second compound 1 µM, first compound 0.1 µM
[15] = second compound 1 µM, first compound 0.316 µM
[16] = second compound 1 µM, first compound 1 µM
[17] = second compound 1 µM, first compound 3.16 µM
[18] = second compound 1 µM, first compound 10 µM
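Note: spheroids exposed to agents for 7 days.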
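Throughout, for viability, T/C: 100% = DMSO vehicle control wells.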

Row | Structure (SMILES) | pIC50 (second compound 0.1 µM) | pIC50 (second compound 0.316 µM) | pIC50 (second compound 1 µM) | viability, T/C [1] | viability, T/C [2] | viability, T/C [3] | viability, T/C [4] | viability, T/C [5] | viability, T/C [6] | viability, T/C [7] | viability, T/C [8] | viability, T/C [9] | viability, T/C [10] | viability, T/C [11] | viability, T/C [12] | viability, T/C [13] | viability, T/C [14] | viability, T/C [15] | viability, T/C [16] | viability, T/C [17] | other results
1 | CCCS(=O)(=O)Nc1ccc(F)c(C(=O)c2c[nH]c3ncc(-c4ccc(Cl)cc4)cc23)c1F + CC(C)NCC(C(=O)N1CCN(c2ncnc3c2C(C)CC3O)CC1)c1ccc(Cl)cc1 | < 5.00 | 5.04 | 5.27 | 93.3% | 89.6% | 94.7% | 95.9% | 86.9% | 73.9% | 67.9% | 78.2% | 74.1% | 59.6% | 72.5% | 48.2% | 68.4% | 61.2% | 59.8% | 60.2% | 60.8% | pIC50 (second compound 3.16 µM): 5.40; pIC50 (second compound 10 µM): > 7.50; viability, T/C [18]: 37.7%; viability, T/C (second compound 3.16 µM, first compound 0.0316 µM): 59.6%; viability, T/C (second compound 3.16 µM, first compound 0.1 µM): 56.9%; viability, T/C (second compound 3.16 µM, first compound 0.316 µM): 51%; viability, T/C (second compound 3.16 µM, first compound 1 µM): 51.7%; viability, T/C (second compound 3.16 µM, first compound 3.16 µM): 54.4%; viability, T/C (second compound 3.16 µM, first compound 10 µM): 32.7%; viability, T/C (second compound 10 µM, first compound 0.0316 µM): 46.1%; viability, T/C (second compound 10 µM, first compound 0.1 µM): 50.3%; viability, T/C (second compound 10 µM, first compound 0.316 µM): 54.9%; viability, T/C (second compound 10 µM, first compound 1 µM): 42.3%; viability, T/C (second compound 10 µM, first compound 3.16 µM): 40.8%; viability, T/C (second compound 10 µM, first compound 10 µM): 14.6%
2 | C=CCn1c(=O)c2cnc(Nc3ccc(N4CCN(C)CC4)cc3)nc2n1-c1cccc(C(C)(C)O)n1 + CCN1CCN(Cc2ccc(Nc3ncc(F)c(-c4cc(F)c5nc(C)n(C(C)C)c5c4)n3)nc2)CC1 | 6.47 | 6.69 | 6.00 | 65.6% | 64% | 47.1% | 40.1% | 31.9% | 19.7% | 65% | 47.1% | 44.1% | 46.7% | 33.2% | 21.5% | 77.3% | 68.2% | 52.3% | 55% | 42.8% | pIC50 (second compound 0.01 µM): 6.63; pIC50 (second compound 0.0316 µM): 6.60; viability, T/C (second compound 0.01 µM, first compound 0.0316 µM): 83.8%; viability, T/C (second compound 0.01 µM, first compound 0.1 µM): 69.3%; viability, T/C (second compound 0.01 µM, first compound 0.316 µM): 43%; viability, T/C (second compound 0.01 µM, first compound 1 µM): 29%; viability, T/C (second compound 0.01 µM, first compound 3.16 µM): 26.7%; viability, T/C (second compound 0.01 µM, first compound 10 µM): 21.3%; viability, T/C (second compound 0.0316 µM, first compound 0.0316 µM): 79.6%; viability, T/C (second compound 0.0316 µM, first compound 0.1 µM): 67.3%; viability, T/C (second compound 0.0316 µM, first compound 0.316 µM): 42.9%; viability, T/C (second compound 0.0316 µM, first compound 1 µM): 34.7%; viability, T/C (second compound 0.0316 µM, first compound 3.16 µM): 25%; viability, T/C (second compound 0.0316 µM, first compound 10 µM): 21.5%; viability, T/C [18]: 34.3%
